Results from PubChem BioAssay AID651650 (Sanford-Burnham Center for Chemical Genomics, 2012).
Activity calls are given as the source filed them.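 Rule for the calls: active = mean IC50 below 20 µM in each of the two panels, so potent in both; inactive = the rest.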

Target: Neuropilin-1 (Homo sapiens) (UniProt O14786)
Assay: NRP-1 b1b2 CendR peptide binding inhibitors, dose response, biochemical, FP and AlphaScreen panel (AID 651650)
Settings: NRP-1 b1b2 / RPARPAR peptide binding, FP or AlphaScreen
[1] = AlphaScreen, run 1, individual panel run IC50
[2] = FP, run 1, individual panel run IC50
[3] = FP, run 2, individual panel run IC50

Chain of Neuropilin-1 (Homo sapiens) (O14786 whole entry, looked up): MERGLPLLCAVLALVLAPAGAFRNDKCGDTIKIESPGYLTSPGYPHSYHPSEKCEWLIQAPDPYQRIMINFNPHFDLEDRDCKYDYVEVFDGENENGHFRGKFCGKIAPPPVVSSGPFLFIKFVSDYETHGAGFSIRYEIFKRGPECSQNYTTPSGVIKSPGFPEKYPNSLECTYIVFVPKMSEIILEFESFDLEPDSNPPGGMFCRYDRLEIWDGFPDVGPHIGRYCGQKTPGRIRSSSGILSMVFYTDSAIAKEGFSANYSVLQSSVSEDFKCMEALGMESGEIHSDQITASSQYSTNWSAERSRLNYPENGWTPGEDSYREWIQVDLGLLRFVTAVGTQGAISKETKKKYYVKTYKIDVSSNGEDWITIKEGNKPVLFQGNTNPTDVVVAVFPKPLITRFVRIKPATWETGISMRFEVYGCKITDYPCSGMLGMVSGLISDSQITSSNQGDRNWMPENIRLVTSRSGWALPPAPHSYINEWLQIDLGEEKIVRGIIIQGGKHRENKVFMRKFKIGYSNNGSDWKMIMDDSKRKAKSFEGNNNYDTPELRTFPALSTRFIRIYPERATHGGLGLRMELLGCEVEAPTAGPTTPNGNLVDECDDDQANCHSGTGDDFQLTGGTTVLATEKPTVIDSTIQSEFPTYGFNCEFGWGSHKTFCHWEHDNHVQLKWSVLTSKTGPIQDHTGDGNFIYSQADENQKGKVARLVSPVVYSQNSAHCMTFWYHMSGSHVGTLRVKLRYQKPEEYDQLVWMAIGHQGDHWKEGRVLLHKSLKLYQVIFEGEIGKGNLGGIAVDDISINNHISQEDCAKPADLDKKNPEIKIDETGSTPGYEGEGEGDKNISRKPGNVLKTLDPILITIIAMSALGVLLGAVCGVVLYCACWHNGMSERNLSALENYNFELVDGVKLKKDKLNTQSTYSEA

Row | SMILES | IC50 (AlphaScreen, mean of runs) | IC50 [1] | IC50 (FP, mean of runs) | IC50 [2] | IC50 [3]
1 | COc1cc(OC)nc(NC(=O)COC(=O)c2cccc(Cl)c2)n1 | inactive | 27.1 µM | > 95 µM (inactive) | > 95 µM | > 95 µM
2 | CCOC(=O)C1CCN(Cc2ccc3ccccc3c2)CC1 | > 100 µM (inactive) | > 100 µM | > 95 µM (inactive) | > 95 µM | > 95 µM
3 | O=C(c1ccc(-c2cccc(C(F)(F)F)c2)o1)N1CCCC(C(F)(F)F)C1 (stereo not given) | > 100 µM (inactive) | > 100 µM | > 95 µM (inactive) | > 95 µM | > 95 µM
4 | Cc1ccc(OCC(=O)Nc2ccc(C)c(S(=O)(=O)N3CCCCCC3)c2)c([N+](=O)[O-])n1 | > 100 µM (inactive) | > 100 µM | > 95 µM (inactive) | > 95 µM | > 95 µM
5 | CN(C)/N=C/c1ccc(Sc2ccc([N+](=O)[O-])cc2[N+](=O)[O-])o1 | inactive | 85.7 µM | > 95 µM (inactive) | > 95 µM | > 95 µM
6 | CCCn1c(C)cc(C(=O)CSc2nc3nc(C)cc(C)n3n2)c1C | > 100 µM (inactive) | > 100 µM | > 95 µM (inactive) | > 95 µM | > 95 µM
7 | CCOC(=O)C1(O)CC(C)=NN1C(=O)c1cccc(Br)c1 (stereo not given) | > 100 µM (inactive) | > 100 µM | > 95 µM (inactive) | > 95 µM | > 95 µM
8 | C=CCN(CC=C)C(=O)C1CC(=O)N(c2ccc(Br)cc2)C1 (stereo not given) | > 100 µM (inactive) | > 100 µM | > 95 µM (inactive) | > 95 µM | > 95 µM
9 | CCOC(=O)c1ccc2[nH]c(C)c(C)c2c1 | > 100 µM (inactive) | > 100 µM | > 95 µM (inactive) | > 95 µM | > 95 µM
10 | CCCCn1nnnc1C(c1cc2ccccc2o1)N(C)Cc1ccc(Cl)c(Cl)c1 (stereo not given) | 12.7 µM | 12.7 µM | > 95 µM (inactive) | > 95 µM | > 95 µM
11 | O=C(CSc1nc2ccccc2n1Cc1ccccc1Cl)N/N=C/c1ccccc1C(=O)O | inactive | 39.2 µM | > 95 µM (inactive) | > 95 µM | > 95 µM
12 | O=C(CCc1ccc(Oc2cc([N+](=O)[O-])cc([N+](=O)[O-])c2)cc1)N1CCCCCC1 | 11.6 µM | 11.6 µM | > 95 µM (inactive) | > 95 µM | > 95 µM
13 | O=C(NNC(=O)c1csc(N2CCOCC2)n1)c1ccc(=O)[nH]c1 | > 100 µM (inactive) | > 100 µM | > 95 µM (inactive) | > 95 µM | > 95 µM
14 | CC(C)(C)OC(=O)NCc1ccc(CNC(=O)c2nc[nH]c2C(=O)N2CCN(C(=O)OC(C)(C)C)CC2)cc1 | > 100 µM (inactive) | > 100 µM | > 95 µM (inactive) | > 95 µM | > 95 µM
15 | C/C(=N\NC(=O)c1cc(O)ccc1O)c1cccc(NC(=O)c2cccc(Cl)c2)c1 | > 100 µM (inactive) | > 100 µM | > 95 µM (inactive) | > 95 µM | > 95 µM
16 | Cc1ccccc1Nc1cc(=O)oc2ccccc12 | > 100 µM (inactive) | > 100 µM | > 95 µM (inactive) | > 95 µM | > 95 µM
17 | CCc1cc(C(=O)OC)c(NC(=O)c2ccoc2C)s1 | > 100 µM (inactive) | > 100 µM | > 95 µM (inactive) | > 95 µM | > 95 µM
18 | CN(C)/C=C/c1c([N+](=O)[O-])c2ccc(O)cc2n1-c1ccccc1 | > 100 µM (inactive) | > 100 µM | > 95 µM (inactive) | > 95 µM | > 95 µM
19 | COc1ccc(N=C2C(=Nc3ccc(OC)cc3)N(c3ccc(N(C)C)cc3)C(=S)N2c2ccc(OC)cc2)cc1 | > 100 µM (inactive) | > 100 µM | > 95 µM (inactive) | > 95 µM | > 95 µM
20 | C=CCOc1ccc(C2/C(=C(\O)c3c(C)[nH]c(C(=O)OC)c3C)C(=O)C(=O)N2CCN(C)C)cc1 (stereo not given) | > 100 µM (inactive) | > 100 µM | > 95 µM (inactive) | > 95 µM | > 95 µM
21 | Cc1ccc(Cl)cc1N1CCN(C(=O)c2cccc3c(=O)c(C)c(-c4ccccc4)oc23)CC1 | > 100 µM (inactive) | > 100 µM | inactive | 26.6 µM | > 95 µM
22 | CCCCCCCN1C(Nc2ccccc2)=NC[C@@H]1Cc1ccccc1 | > 100 µM (inactive) | > 100 µM | > 95 µM (inactive) | > 95 µM | > 95 µM
